Earlier results on 1 compound are cited in US20250288631A1, “PHYTOTHERAPY FORMULATION FOR SEXUAL DYSFUNCTIONS” (priority 2022, published 2025).

For the data set the following is noted: EFSA (2015).

Take `C/C=C/C=C\CC/C=C/C(=O)NCC(C)C` [spilanthol]: the EFSA classification result was “class III”. The Exposure limit (class III, 60 kg person) was 90 µg/person/day.
